In patent US20210267204A1, “MICROBIOCIDAL OXADIAZOLE DERIVATIVES” (SYNGENTA CROP PROTECTION AG, priority 2018, published 2021):

Experiments:
Phakopsora pachyrhizi = experiment: Fungicidal activity against Phakopsora pachyrhizi / soybean / leaf disc preventative (Asian soybean rust); format: in vivo; conditions: foliar, 200 ppm in the applied formulation, soybean leaf disks, inoculated one day after application, assessed 12 to 14 days after application, compared to untreated, read-out: disease control
Experimental: Leaf disks or leaf segments of various plant species are cut from plants grown in a greenhouse. The cut leaf disks or segments are placed in multiwell plates (24-well format) onto water agar. The leaf disks are sprayed with a test solution before (preventative) or after (curative) inoculation. Compounds to be tested are prepared as DMSO solutions (max. 10 mg/mL) which are diluted to the appropriate concentration with 0.025% Tween20 just before spraying. The inoculated leaf disks or segments are incubated under defined conditions (temperature, relative humidity, light, etc.) according to the respective test system. A single evaluation of disease level is carried out 3 to 14 days after inoculation, depending on the pathosystem. Percent disease control relative to the untreated check leaf disks or segments is then calculated. Soybean leaf disks are placed on water agar in multiwell plates (24-well format) and sprayed with the formulated test compound diluted in water. One day after application leaf discs are inoculated by spraying a spore suspension on the lower leaf surface. After an incubation period in a climate cabinet of 24-36 hours in darkness at 20° C. and 75% rh leaf disc are kept at 20° C. with 12 hours light/day and 75% rh. The activity of a compound is assessed as percent disease control compared to untreated when an appropriate level of disease damage appears in untreated check leaf disks (12 to 14 days after application). The following compounds at 200 ppm in the applied formulation give at least 80% disease control in this test when compared to untreated control leaf disks under the same conditions, which show extensive disease development.

[1] = system: Puccinia recondita f. sp. tritici; experiment: Fungicidal activity against Puccinia recondita f. sp. tritici / wheat / leaf disc curative (brown rust); format: in vivo; conditions: foliar, 200 ppm in the applied formulation, wheat leaf segments cv. Kanzler, applied 1 day after inoculation, assessed 6 to 8 days after application, compared to untreated, read-out: disease control
Experimental: Leaf disks or leaf segments of various plant species are cut from plants grown in a greenhouse. The cut leaf disks or segments are placed in multiwell plates (24-well format) onto water agar. The leaf disks are sprayed with a test solution before (preventative) or after (curative) inoculation. Compounds to be tested are prepared as DMSO solutions (max. 10 mg/mL) which are diluted to the appropriate concentration with 0.025% Tween20 just before spraying. The inoculated leaf disks or segments are incubated under defined conditions (temperature, relative humidity, light, etc.) according to the respective test system. A single evaluation of disease level is carried out 3 to 14 days after inoculation, depending on the pathosystem. Percent disease control relative to the untreated check leaf disks or segments is then calculated. Wheat leaf segments cv. Kanzler are placed on agar in multiwell plates (24-well format). The leaf segments are then inoculated with a spore suspension of the fungus. Plates were stored in darkness at 19° C. and 75% relative humidity. The formulated test compound diluted in water was applied 1 day after inoculation. The leaf segments were incubated at 19° C. and 75% relative humidity under a light regime of 12 hours light/12 hours darkness in a climate cabinet and the activity of a compound was assessed as percent disease control compared to untreated when an appropriate level of disease damage appears in untreated check leaf segments (6 to 8 days after application). The following compounds at 200 ppm in the applied formulation give at least 80% disease control in this test when compared to untreated control leaf disks under the same conditions, which show extensive disease development.

[2] = system: Puccinia recondita f. sp. tritici; experiment: Fungicidal activity against Puccinia recondita f. sp. tritici / wheat / leaf disc preventative (brown rust); format: in vivo; conditions: foliar, 200 ppm in the applied formulation, wheat leaf segments cv. Kanzler, inoculated 1 day after application, assessed 7 to 9 days after application, compared to untreated, read-out: disease control
Experimental: Leaf disks or leaf segments of various plant species are cut from plants grown in a greenhouse. The cut leaf disks or segments are placed in multiwell plates (24-well format) onto water agar. The leaf disks are sprayed with a test solution before (preventative) or after (curative) inoculation. Compounds to be tested are prepared as DMSO solutions (max. 10 mg/mL) which are diluted to the appropriate concentration with 0.025% Tween20 just before spraying. The inoculated leaf disks or segments are incubated under defined conditions (temperature, relative humidity, light, etc.) according to the respective test system. A single evaluation of disease level is carried out 3 to 14 days after inoculation, depending on the pathosystem. Percent disease control relative to the untreated check leaf disks or segments is then calculated. Wheat leaf segments cv. Kanzler were placed on agar in multiwell plates (24-well format) and sprayed with the formulated test compound diluted in water. The leaf disks were inoculated with a spore suspension of the fungus 1 day after application. The inoculated leaf segments were incubated at 19° C. and 75% relative humidity (rh) under a light regime of 12 hours light/12 hours darkness in a climate cabinet and the activity of a compound was assessed as percent disease control compared to untreated when an appropriate level of disease damage appears in untreated check leaf segments (7 to 9 days after application). The following compounds at 200 ppm in the applied formulation give at least 80% disease control in this test when compared to untreated control leaf disks under the same conditions, which show extensive disease development.

[3] = system: Glomerella lagenarium (Colletotrichum lagenarium); experiment: Fungicidal activity against Glomerella lagenarium (Colletotrichum lagenarium) liquid culture / cucumber / preventative (anthracnose); format: cell-based; conditions: Colletotrichum orbiculare; 20 ppm in the applied formulation; liquid culture in PDB, 24° C.; 3 to 4 days after application; compared to untreated control; read-out: disease control (inhibition of growth measured photometrically)
Experimental: Mycelia fragments or conidia suspensions of a fungus prepared either freshly from liquid cultures of the fungus or from cryogenic storage, are directly mixed into nutrient broth. DMSO solutions of the test compound (max. 10 mg/mL) are diluted with 0.025% Tween20 by a factor of 50 and 10 μL of this solution is pipetted into a microtiter plate (96-well format). The nutrient broth containing the fungal spores/mycelia fragments is then added to give an end concentration of the tested compound. The test plates are incubated in the dark at 24° C. and 96% relative humidity (rh). The inhibition of fungal growth is determined photometrically after 2 to 7 days, depending on the pathosystem, and percent antifungal activity relative to the untreated check is calculated. Conidia of the fungus from cryogenic storage are directly mixed into nutrient broth (PDB—potato dextrose broth). After placing a (DMSO) solution of test compound into a microtiter plate (96-well format), the nutrient broth containing the fungal spores is added. The test plates are incubated at 24° C. and the inhibition of growth is measured photometrically 3 to 4 days after application. The following compounds at 20 ppm in the applied formulation give at least 80% disease control in this test when compared to untreated control under the same conditions, which show extensive disease development.

Structure (SMILES): COCC(=S)NCc1cnn(Cc2ccc(-c3noc(C(F)(F)F)n3)s2)c1 [Compound 1.14, 2-methoxy-N-[[1-[[5-[5-(trifluoromethyl)-1,2,4-oxadiazol-3-yl]-2-thienyl]methyl]pyrazol-4-yl]methyl]thioacetamide]
- pest or weed control at 200 ppm (Phakopsora pachyrhizi): ≥ 80%
- melting point: 135.5 to 140.3 °C
- pest or weed control at 200 ppm [1]: ≥ 80%
- pest or weed control at 200 ppm [2]: ≥ 80%
- inhibition at 20 ppm [3]: ≥ 80%
